Results: patent US7956074B2, “Aryl-isoxazolo-4-yl-oxadiazole derivatives” (Hoffman-La Roche Inc., priority 2005, dated 2011)

What follows are compounds tested against T1, GABA A receptor α5β3γ2 (Homo sapiens, UniProt P18507+P31644) (assay: [3H]flumazenil competition binding, human GABA A α5β3γ2). Conditions: competition for [3H]flumazenil (0.5 nM) binding, HEK293 cells expressing human (transiently transfected) α5β3γ2; means of two determinations; read-out: Ki[nM] hα5.
T1 construct: expressed in transfected cells; host or cells: HEK293 cells, transiently transfected; membranes prepared
In short: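 HEK293 membranes expressing GABA-A receptors (human transiently, rat stably transfected) were used for [3H]flumazenil competition in Krebs-tris buffer, pH 7.5. Incubation ran 1 h at 4 °C to equilibrium, followed by filtration and scintillation counting. Ki values are means of two determinations.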

Row | Ki [nM] | Compound
1 | 31.2 | Cc1onc(-c2ccccc2)c1-c1nnc(-c2ccc(N3CCC(F)(F)CC3)cc2)o1 [Example 112, 4,4-Difluoro-1-{4-[5-(5-methyl-3-phenyl-isoxazol-4-yl)-[1,3,4]oxadiazol-2-yl]-phenyl}-piperidine]
2 | 7.4 | COc1cc(N2CCOCC2)ccc1-c1nnc(-c2c(-c3ccccc3)noc2-n2cccn2)o1 [Example 113, 4-{3-Methoxy-4-[5-(3-phenyl-5-pyrazol-1-yl-isoxazol-4-yl)-[1,3,4]oxadiazol-2-yl]-phenyl}-morpholine]
3 | 6 | COc1cc(N2CCOCC2)c(F)cc1-c1nnc(-c2c(-c3ccccc3)noc2C)o1 [Example 114, 4-{2-Fluoro-5-methoxy-4-[5-(5-methyl-3-phenyl-isoxazol-4-yl)-[1,3,4]oxadiazol-2-yl]-phenyl}-morpholine]
4 | 131 | COc1cc(N2CCOCC2)ccc1-c1nnc(-c2c(-c3ccccc3)noc2C#N)o1 [Example 115, 4-[5-(2-Methoxy-4-morpholin-4-yl-phenyl)-[1,3,4]oxadiazol-2-yl]-3-phenyl-isoxazole-5-carbonitrile]
5 | 4.5 | COc1cc(N2CCSCC2)c(F)cc1-c1nnc(-c2c(-c3ccccc3)noc2C)o1 [Example 116, 4-{2-Fluoro-5-methoxy-4-[5-(5-methyl-3-phenyl-isoxazol-4-yl)-[1,3,4]oxadiazol-2-yl]-phenyl}-thiomorpholine]
6 | 2 | COc1cc(N2CCS(=O)(=O)CC2)c(F)cc1-c1nnc(-c2c(-c3ccccc3)noc2C)o1 [Example 117, 4-{2-Fluoro-5-methoxy-4-[5-(5-methyl-3-phenyl-isoxazol-4-yl)-[1,3,4]oxadiazol-2-yl]-phenyl}-thiomorpholine 1,1-dioxide]
7 | 149 | Cc1onc(-c2ccccc2)c1-c1nnc(-c2cc(F)c(F)cc2F)o1 [Example 118, 2-(5-Methyl-3-phenyl-isoxazol-4-yl)-5-(2,4,5-trifluoro-phenyl)-[1,3,4]oxadiazole]
8 | 24.3 | Cc1onc(-c2ccccc2)c1-c1nnc(-c2cc(F)c(N3CCSCC3)cc2F)o1 [Example 119, 4-{2,5-Difluoro-4-[5-(5-methyl-3-phenyl-isoxazol-4-yl)-[1,3,4]oxadiazol-2-yl]-phenyl}-thiomorpholine]
9 | 13.5 | Cc1onc(-c2ccccc2)c1-c1nnc(-c2cc(F)c(N3CCS(=O)(=O)CC3)cc2F)o1 [Example 120, 4-{2,5-Difluoro-4-[5-(5-methyl-3-phenyl-isoxazol-4-yl)-[1,3,4]oxadiazol-2-yl]-phenyl}-thiomorpholine 1,1-dioxide]
10 | 115 | Cc1onc(-c2ccccc2)c1-c1nnc(-c2cccs2)o1 [Example 121, 2-(5-Methyl-3-phenyl-isoxazol-4-yl)-5-thiophen-2-yl-[1,3,4]oxadiazole]
11 | 139 | Cc1onc(-c2ccccc2)c1-c1nnc(-c2ccsc2)o1 [Example 122, 2-(5-Methyl-3-phenyl-isoxazol-4-yl)-5-thiophen-3-yl-[1,3,4]oxadiazole]
12 | 14.4 | COc1cc(N2CCOCC2)ccc1-c1nnc(-c2c(-c3ccsc3)noc2C)o1 [Example 123, 4-{3-Methoxy-4-[5-(5-methyl-3-thiophen-3-yl-isoxazol-4-yl)-[1,3,4]oxadiazol-2-yl]-phenyl}-morpholine]
13 | 8.2 | COCCNc1ccc(-c2nnc(-c3c(-c4ccccc4)noc3C)o2)c(OC)c1 [Example 124, (2-Methoxy-ethyl)-{3-methoxy-4-[5-(5-methyl-3-phenyl-isoxazol-4-yl)-[1,3,4]oxadiazol-2-yl]-phenyl}-amine]
14 | 26.8 | Cc1onc(-c2ccccc2)c1-c1nnc(-c2cccc3[nH]cnc23)o1 [Example 125, 4-[5-(5-Methyl-3-phenyl-isoxazol-4-yl)-[1,3,4]oxadiazol-2-yl]-1H-benzoimidazole]
15 | 4.5 | COc1cc(NCCSC)c(F)cc1-c1nnc(-c2c(-c3ccccc3)noc2C)o1 [Example 126, {2-Fluoro-5-methoxy-4-[5-(5-methyl-3-phenyl-isoxazol-4-yl)-[1,3,4]oxadiazol-2-yl]-phenyl}-(2-methylsulfanyl-ethyl)-amine]
16 | 1.7 | COc1cc(NCCS(C)(=O)=O)c(F)cc1-c1nnc(-c2c(-c3ccccc3)noc2C)o1 [Example 127, {2-Fluoro-5-methoxy-4-[5-(5-methyl-3-phenyl-isoxazol-4-yl)-[1,3,4]oxadiazol-2-yl]-phenyl}-(2-methanesulfonyl-ethyl)-amine]
17 | 4.2 | COc1cc(NCCN2CCCC2=O)c(F)cc1-c1nnc(-c2c(-c3ccccc3)noc2C)o1 [Example 128, 1-(2-{2-Fluoro-5-methoxy-4-[5-(5-methyl-3-phenyl-isoxazol-4-yl)-[1,3,4]oxadiazol-2-yl]-phenylamino}-ethyl)-pyrrolidin-2-one]
18 | 2.5 | COc1cc(NCCO)c(F)cc1-c1nnc(-c2c(-c3ccccc3)noc2C)o1 [Example 129, 2-{2-Fluoro-5-methoxy-4-[5-(5-methyl-3-phenyl-isoxazol-4-yl)-[1,3,4]oxadiazol-2-yl]-phenylamino}-ethanol]
19 | 21.2 | COc1cc(NCc2ccccn2)c(F)cc1-c1nnc(-c2c(-c3ccccc3)noc2C)o1 [Example 131, {2-Fluoro-5-methoxy-4-[5-(5-methyl-3-phenyl-isoxazol-4-yl)-[1,3,4]oxadiazol-2-yl]-phenyl}-pyridin-2-ylmethyl-amine]
20 | 8.6 | COc1cc(NCCN2CCCC2)c(F)cc1-c1nnc(-c2c(-c3ccccc3)noc2C)o1 [Example 132, {2-Fluoro-5-methoxy-4-[5-(5-methyl-3-phenyl-isoxazol-4-yl)-[1,3,4]oxadiazol-2-yl]-phenyl}-(2-pyrrolidin-1-yl-ethyl)-amine]
21 | 12.8 | COc1cc(NCCN2CCNC2=O)c(F)cc1-c1nnc(-c2c(-c3ccccc3)noc2C)o1 [Example 133, 1-(2-{2-Fluoro-5-methoxy-4-[5-(5-methyl-3-phenyl-isoxazol-4-yl)-[1,3,4]oxadiazol-2-yl]-phenylamino}-ethyl)-imidazolidin-2-one]
22 | 5.8 | COc1cc(NC=O)ccc1-c1nnc(-c2c(-c3ccccc3)noc2C)o1 [Example 134, N-{3-Methoxy-4-[5-(5-methyl-3-phenyl-isoxazol-4-yl)-[1,3,4]oxadiazol-2-yl]-phenyl}-formamide]
23 | 9.4 | COc1cc(NCCN(C)C)c(F)cc1-c1nnc(-c2c(-c3ccccc3)noc2C)o1 [Example 135, N′-{2-Fluoro-5-methoxy-4-[5-(5-methyl-3-phenyl-isoxazol-4-yl)-[1,3,4]oxadiazol-2-yl]-phenyl}-N,N-dimethyl-ethane-1,2-diamine]
24 | 15.3 | Cc1onc(-c2ccccc2)c1-c1nnc(-c2ccc(N3CCOCC3)nc2)o1 [Example 136, 4-{5-[5-(5-Methyl-3-phenyl-isoxazol-4-yl)-[1,3,4]oxadiazol-2-yl]-pyridin-2-yl}-morpholine]
25 | 24.5 | Cc1onc(-c2ccccc2)c1-c1nnc(-c2ccc(NCCO)nc2)o1 [Example 137, 2-{5-[5-(5-Methyl-3-phenyl-isoxazol-4-yl)-[1,3,4]oxadiazol-2-yl]-pyridin-2-ylamino}-ethanol]
26 | 31 | Cc1onc(-c2ccccc2)c1-c1nnc(-c2ccc(N3CCSCC3)nc2)o1 [Example 138, 4-{5-[5-(5-Methyl-3-phenyl-isoxazol-4-yl)-[1,3,4]oxadiazol-2-yl]-pyridin-2-yl}-thiomorpholine]
27 | 16.4 | Cc1onc(-c2ccccc2)c1-c1nnc(-c2ccc(NC3CCOCC3)nc2)o1 [Example 139, {5-[5-(5-Methyl-3-phenyl-isoxazol-4-yl)-[1,3,4]oxadiazol-2-yl]-pyridin-2-yl}-(tetrahydro-pyran-4-yl)-amine]
28 | 23.5 | Cc1onc(-c2ccccc2)c1-c1nnc(-c2ccc(N3CCC(O)CC3)nc2)o1 [Example 140, 5′-[5-(5-Methyl-3-phenyl-isoxazol-4-yl)-[1,3,4]oxadiazol-2-yl]-3,4,5,6-tetrahydro-2H-[1,2′]bipyridinyl-4-ol]
29 | 17.7 | Cc1onc(-c2ccccc2)c1-c1nnc(-c2ccc(N3CCS(=O)(=O)CC3)nc2)o1 [Example 141, 4-{5-[5-(5-Methyl-3-phenyl-isoxazol-4-yl)-[1,3,4]oxadiazol-2-yl]-pyridin-2-yl}-thiomorpholine 1,1-dioxide]
30 | 17.2 | Cc1onc(-c2ccccc2)c1-c1nnc(-c2ccc(N3CCOCC3)cn2)o1 [Example 142, 4-{6-[5-(5-Methyl-3-phenyl-isoxazol-4-yl)-[1,3,4]oxadiazol-2-yl]-pyridin-3-yl}-morpholine]

Row | Compound | Ki [nM]
31 | N-Cyclopropylmethyl-4-[5-(5-methyl-3-phenyl-isoxazol-4-yl)-[1,3,4]oxadiazol-2-yl]-benzamide [Example 79] | 235
